Data from the NIST ThermoML archive (doi:10.1021/acs.jced.8b00358).

Assay: molar heat capacity at constant pressure
Details: 83 kPa, Liquid, DSC

CCCCC(=O)OCC(COC(=O)CCCC)(COC(=O)CCCC)COC(=O)CCCC [pentaerythritol tetrapentanoate]
Details | molar heat capacity at constant pressure [J/K/mol]
334.15 K | 887.09
335.14 K | 888.51
336.14 K | 889.93
337.14 K | 891.35
338.14 K | 892.29
339.15 K | 893.71
340.14 K | 895.13
341.14 K | 896.07
342.15 K | 897.02
343.14 K | 898.44
344.15 K | 899.38
345.15 K | 900.8
346.15 K | 902.22
347.14 K | 903.16
348.14 K | 904.58
349.15 K | 906
350.14 K | 907.42
351.14 K | 908.36
352.14 K | 909.78
353.14 K | 911.2
354.15 K | 912.61
355.14 K | 913.56
356.15 K | 914.98
357.15 K | 916.39
358.14 K | 917.81
359.15 K | 918.76
360.15 K | 920.18
361.14 K | 921.59
362.15 K | 922.54
363.15 K | 923.96
364.14 K | 925.37
365.14 K | 926.79
366.15 K | 927.74
367.14 K | 929.16
368.14 K | 930.57
369.14 K | 931.99
370.14 K | 933.41
371.15 K | 934.35
372.14 K | 935.77
373.14 K | 937.19
374.15 K | 938.61
375.14 K | 939.55
376.14 K | 940.97
377.14 K | 942.39
378.15 K | 943.81
379.15 K | 944.75
380.14 K | 946.17
381.15 K | 947.59
382.14 K | 949.01
383.14 K | 950.42
384.14 K | 951.84
385.15 K | 952.79
386.14 K | 954.2
387.14 K | 955.62
388.15 K | 957.04
389.15 K | 957.98
390.14 K | 959.4
391.15 K | 960.82
392.15 K | 961.77
393.15 K | 963.18
394.15 K | 964.13
395.15 K | 965.55
396.14 K | 966.96
397.14 K | 968.38
398.14 K | 969.8
399.14 K | 971.22
400.15 K | 972.16
401.14 K | 973.58
402.14 K | 975
403.15 K | 975.94
404.15 K | 977.36
405.14 K | 978.78
406.15 K | 979.72
407.14 K | 981.14
408.14 K | 982.56
409.14 K | 983.51
410.15 K | 984.92
411.15 K | 986.34
412.14 K | 987.76
413.15 K | 988.7
414.15 K | 990.12
415.15 K | 991.54
416.14 K | 992.96
417.15 K | 993.9
418.15 K | 995.32
419.15 K | 996.27
420.14 K | 997.68
421.15 K | 999.1
422.15 K | 1000
423.15 K | 1001.5
424.14 K | 1002.9
425.15 K | 1004.3
426.15 K | 1005.2
427.14 K | 1006.7
428.15 K | 1008.1
429.15 K | 1009
430.14 K | 1010.4
431.15 K | 1011.4
432.15 K | 1012.8
